Measurements published in the supplement of paper PMC11061612.

Columns and labels:
[1] = tested on: JURL-MK1 (Chronic Myelogenous Leukemia); assay: Bliss excess, mean over the matrix (fraction); higher = more synergy
In short: (§1)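 Cell lines in DMEM/F12 or RPMI with 10% FBS were plated in 1536-well plates, held 24 hours at 37°C, 5% CO2, then given two-drug dose matrices for 72 hours (DMSO typically 0.2%). Viability was read by CellTiter-Glo 2.0 luminescence and scaled as inhibition from 0 (vehicle wells) to 1 (blank wells). Combination Emax is the second-highest inhibition in the matrix; Bliss excess is observed combination effect minus expected EA + EB − EA·EB, EA and EB being single-agent effects.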

DK-MG (Glioblastoma) = assay: as above
In short: as §1

[2] = tested on: SBC-5 (Small Cell Lung Carcinoma); assay: as above
In short: as §1

SK-MEL-24 (Melanoma) [3] = assay: as above
In short: as §1

[4] = tested on: NTERA-2-cl-D1 (Other Solid Carcinomas); assay: as above
In short: as §1

[5] = tested on: RS4-11 (B-Lymphoblastic Leukemia); assay: as above
In short: as §1

NCI-H2452 (Mesothelioma) = assay: as above
In short: as §1

[6] = tested on: NCI-H835 (Other Solid Carcinomas); assay: as above
In short: as §1

[7] = tested on: TOV-21G (Ovarian Carcinoma); assay: as above
In short: as §1

GCIY (Gastric Carcinoma) = assay: as above
In short: as §1

[8] = tested on: NCI-H1648 (Lung Adenocarcinoma); assay: as above
In short: as §1

[9] = tested on: KNS-62 (Squamous Cell Lung Carcinoma); assay: combination Emax (second highest fraction inhibited in the dose matrix, 72 h); higher = more inhibition; extreme values may be limits of the assay
In short: as §1

[10] = tested on: JURL-MK1 (Chronic Myelogenous Leukemia); assay: as above
In short: as §1

[11] = tested on: BC-1 (B-Cell Non-Hodgkin's Lymphoma); assay: as above
In short: as §1

SK-MEL-24 (Melanoma) [12] = assay: as above
In short: as §1

[13] = tested on: NTERA-2-cl-D1 (Other Solid Carcinomas); assay: as above
In short: as §1

[14] = tested on: ATN-1 (T-Lymphoblastic Leukemia); assay: as above
In short: as §1

[15] = tested on: RPMI-8402 (T-Lymphoblastic Leukemia); assay: as above
In short: as §1

[16] = tested on: GRANTA-519 (B-Cell Non-Hodgkin's Lymphoma); assay: as above
In short: as §1

[17] = tested on: SBC-3 (Small Cell Lung Carcinoma); assay: as above
In short: as §1
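Wherever Bliss excess, mean over the matrix is given: after 72 h of two-drug dosing.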

Row | SMILES | Bliss excess [1] | Bliss excess (DK-MG (Glioblastoma)) | Bliss excess [2] | Bliss excess (SK-MEL-24 (Melanoma) [3]) | Bliss excess [4] | Bliss excess [5] | Bliss excess (NCI-H2452 (Mesothelioma)) | Bliss excess [6] | Bliss excess [7] | Bliss excess (GCIY (Gastric Carcinoma)) | Bliss excess [8] | combination Emax [9] | combination Emax [10] | combination Emax [11] | combination Emax (SK-MEL-24 (Melanoma) [12]) | combination Emax [13] | combination Emax [14] | combination Emax [15] | combination Emax [16] | combination Emax [17]
1 | C[C@@H](c1ccc2nccn2c1)n1nnc2ncc(-c3cnn(C)c3)nc21 [Savolitinib] + CC1(C)CCC(CN2CCN(c3ccc(C(=O)NS(=O)(=O)c4ccc(NCC5CCOCC5)c([N+](=O)[O-])c4)c(Oc4cnc5[nH]ccc5c4)c3)CC2)=C(c2ccc(Cl)cc2)C1 [Venetoclax] (first compound max 1 µM, 7x7, partner max 1 µM) | -0.0679 | -0.119 | -0.0451 | -0.0805 | -0.0678 | -0.0566 | -0.0714 | -0.0355 | -0.0577 | -0.0732 | -0.0253 | 0.0888 | 0.127 | 0.209 | 0.154 | 0.257 | 0.186 | 0.183 | 0.306 | 0.118
2 | C[C@@H](c1ccc2nccn2c1)n1nnc2ncc(-c3cnn(C)c3)nc21 [Savolitinib] + Cc1c2c(nn1C)CSCc1cc(n(C)n1)CSc1cc(c3ccccc3c1)OCCCc1c(C(=O)O)n(C)c3c-2c(Cl)ccc13 [AZD5991] (first compound max 1 µM, 7x7, partner max 1 µM) | -0.0037 | -0.0226 | 0.0286 | -0.0519 | -0.015 | -0.0406 | -0.109 | -0.0267 | -0.0111 | -0.0423 | 0.0216 | 0.141 | 0.129 | 1 | 0.225 | 0.422 | 0.904 | 0.502 | 0.141 | 0.135
